12 molecules from patent US8586719B2, “Triterpenes for modulating gene expression and cell membrane, and as antiprotozoal agents” (Pacific Arrow Limited, priority 2005, dated 2013) can be followed below.

Series [1] concerns Fibronectin. As to the kind of experiment: Fibronectin secretion, lung carcinoma cells (H460). Format: cell-based, human. The settings on record: Lung H460; concentration 10 (label suffix). The method, then:
(§1) Reduction of Fibronectin secretion from ES2 cells after xanifolia-Y treatment. • (Results of F1, F3, F4, F5, F7, F8, F11, F12A, F15, F16, F17) Data in PCT/US2008/002086, 1188-ALA-PCT, filed Feb. 15, 2008 are incorporated herein by reference • (F11) For lung carcinoma cells (H460), at concentration of 20 ug/ml, there are inhibitions of Fibronectin secretion ranged from 20-60%. • (F12A) For bladder carcinoma cells (HTB-9), Xanifolia-Y (10 ug/ml) inhibits 50% of Fibronectin secretion. • (F15) In liver HepG2 cells. 10 ug/ml of xanifolia-Y inhibits 42% secretion of Fibronectin. • (F16) Incubation of brain glioblastoma T98G cells with 10 ug/ml of xanifolia-Y inhibits 27% Fibronectin secretion and with 20 ug/ml Y inhibits 74% Fibronectin secretion. • (F17) For skin SK-MeI-5 cells, the inhibition is 40-57% with 20 ug/ml of Xanifolia-Y.

For series [2], the system named is Fibronectin. As to the kind of experiment: Fibronectin secretion, liver HepG2 cells. Format: cell-based, human. The settings on record: 10 ug/ml (table: label suffix -10). The method, then: as §1
In series [3] the test system is Fibronectin. The series is described as follows: Fibronectin secretion from ES2 cells. Format: cell-based, human. The method, then: as §1
For series [4], the system named is Fibronectin. As to the kind of experiment: Fibronectin secretion, skin SK-MEL-5 cells. Format: cell-based, human. The following applies: Skin SK-MEL-5; concentration 10 (label suffix). The method, then:
as §1

Series [5] relates to Fibronectin. As to the kind of experiment: Fibronectin secretion, bladder carcinoma cells (HTB-9). Format: cell-based, human. The settings on record: Bladder HTB-9; 10 ug/ml (table: label suffix -10). As to the method: as §1
In series [6] the test system is Fibronectin. As to the kind of experiment: Fibronectin secretion, brain glioblastoma T98G cells. The following applies: Brain T98G; 10 ug/ml (table: label suffix -10). Format: cell-based, human. As to the method:
as §1

Series [7] concerns Leishmania Major (promastigotes). The series is described as follows: Cell growth of Leishmania parasites by MTT assay. Format: cell-based. The settings on record: for IC50: Leishmania major, read-out: IC50, cytotoxic to Leishmania Major (promastigotes). The method, then:
Method: Leishmania parasites (Leishmania major: MRHO/SU/59/P/LV39) were grown in culture medium in a T75 flask at room temperature. Promastigotes of Leishmania major (approximately 40 million per ml) were used in the experiment. 1.2 ml cell culture was transferred to a well of the 24-wells plate. Saponin Y10 (0.2 ml in medium) with different concentrations (final 6.25-200 ug/ml) was added to culture and cells were grown for 1-5 days at room temperature. At the end of drug-treatment, 150 ul of MTT (5 mg/ml in PBS) was added to each well and incubated for 4 hours. Formazan formed in cells was dissolved with DMSO and the OD at 490 nm was determined by an ELISA reader.
For orientation: Formazan colour is commonly taken as a measure of viable cells.

A further series deals with cancer cells. As to the kind of experiment: Anticancer activity of alkaline-hydrolysed saponins (cells not stated). Format: cell-based. The settings on record: after removal of acyl groups by alkaline hydrolysis.
[8] abbreviates: concentration 10 (label suffix; text uses ug/ml).

Converted amounts (≈) assume the structure as drawn. Like-named read-outs stand apart in the source and are kept apart here.

As to `CC=C(C)C(=O)OC1C(OC(=O)c2ccccc2)C(C)(C)CC2C3=CCC4C5(C)CCC(OC6OC(C(=O)OC)C(O)C(OC7OCC(O)C(O)C7O)C6OC6OC(CO)C(O)C(O)C6O)C(C)(C)C5CCC4(C)C3(C)CC(O)C21CO` (stereo not shown) [Ba4], the “% inhibition of Fibronectin secretion” value worked out at 18% in the series on Fibronectin [1]; 28% in the series on Fibronectin [2]; 28% in the series with Fibronectin [3] (setting [8]); 10% in the series on Fibronectin [4]; 30% in the series on Fibronectin [5]; 24% in the series on Fibronectin [6].

For `C/C=C(/C)C(=O)O[C@H]1[C@H](OC(=O)/C(C)=C\C)[C@@]2(CO)C(CC1(C)C)C1=CCC3[C@@]4(C)CC[C@H](O[C@@H]5OC(C(=O)O)[C@@H](O)C(O[C@@H]6OC[C@@H](O)C(O)C6O)C5O[C@@H]5OC(CO)[C@H](O)C(O)C5O)C(C)(C)C4CC[C@@]3(C)[C@]1(C)C[C@H]2O` (stereo partly drawn) [Ba1, 3-O-[β-D-galactopyranosyl(1→2)]-β-D-xylopyranosyl(1→3)-β-D-glucuronopyranosyl-21-O-angeloyl, 22-O-angeloyl-3β, 15α, 21β, 22α, 28-pentahydroxyolean-12-ene], the “% inhibition of Fibronectin secretion” value came to 19% in the series with Fibronectin [1]; 33% with Fibronectin [2]; 30% in the series with Fibronectin [3] (setting [8]); 10% in the series on Fibronectin [4]; 25% with Fibronectin [5]; 26% in the series with Fibronectin [6]. Besides, in series [7] (MTT assay, promastigotes), the “IC50, cytotoxic to Leishmania Major (promastigotes)” value (shortened to “IC50, cytotoxic to Leishmania Major”) was 15 µg/mL (≈ 13.3 µM).

One may read the IC50 as the concentration at which inhibition is half-maximal. Consider `C/C=C(/C)C(=O)O[C@@H]1C(O)[C@H](O[C@H]2[C@H](OC(C)=O)[C@@]3(CO)C(CC2(C)C)C2=CCC4[C@@]5(C)CC[C@H](O[C@@H]6OC(C(=O)O)[C@@H](O)[C@@H](O[C@@H]7O[C@@H](CO)[C@@H](O)C7O)C6O[C@@H]6OC(CO)[C@H](O)[C@@H](O)C6O)C(C)(C)C5CC[C@@]4(C)[C@]2(C)C[C@H]3O)OC(C)[C@@H]1OC(=O)/C(C)=C\C` (stereo partly drawn) [Y1, 3-O-[β-D-galactopyranosyl (1→2)]-α-L-arabinofuranosyl(1→3)-β-D-glucuronopyranosyl-21-O-(3,4-diangeloyl)-α-L-rhamnophyranosyl-22-O-acetyl-3β,16α, 21β, 22α, 28-pentahydroxyolean-12-ene], for which, in series [7], the IC50 came to 23 µg/mL (≈ 17.5 µM).

As for `CC1O[C@@H](OC2[C@H](OC3[C@H](O[C@H]4C(O[C@@H]5OC(CO)[C@H](O)[C@@H](O)C5O)[C@H](O[C@H]5CC[C@@]6(C)C(CC[C@]7(C)C6CC[C@]68O[C@H](O)[C@]9(C6CC(C)(C)[C@@H](O)[C@@H]9O)[C@H](O)C[C@]87C)C5(C)C)OC(C(=O)O)[C@H]4O)OC(CO)[C@H](O)[C@H]3O)OC(C)[C@H](O)[C@@H]2O)C(O)[C@@H](O)[C@H]1O` (stereo partly shown) [AKOH-Mb5], in the series with Fibronectin [3] (concentration 40 (label suffix)), the “% inhibition of Fibronectin secretion” value is reported as “No effect”. The anticancer activity result in the series with cancer cells was “lost anticancer activity”. The “cytotoxic to Leishmania Major (promastigotes)” value in series [7] (MTT assay, promastigotes) is given as “not cytotoxic”.

For the molecule `CC1(C)CC2C3=CCC4[C@@]5(C)CC[C@H](O[C@@H]6OC(C(=O)O)[C@@H](O)[C@@H](O[C@@H]7O[C@@H](CO)C(O)[C@@H]7O)C6O[C@@H]6OC(CO)[C@H](O)[C@@H](O)C6O)C(C)(C)C5CC[C@@]4(C)[C@]3(C)[C@@H](O)[C@@H](O)[C@@]2(CO)[C@@H](O)[C@@H]1O` (stereo partly shown) [AKOH-Y], the anticancer activity result with cancer cells is “lost anticancer activity”. For the same molecule, the “cytotoxic to Leishmania Major (promastigotes)” value in series [7] (MTT assay, promastigotes) is “not cytotoxic”.

On to `C/C=C(/C)C(=O)O[C@H]1[C@H](OC(C)=O)C(C)(C)CC2C3=CCC4[C@@]5(C)CC[C@H](O[C@@H]6OC(C(=O)OCCCC)[C@@H](O)C(O[C@@H]7O[C@@H](CO)C(O)C7O)C6O[C@@H]6OC(CO)[C@H](O)C(O)C6O)C(C)(C)C5CC[C@@]4(C)[C@]3(C)C[C@@H](O)[C@]21CO` (stereo partly drawn) [X, 3-O-{[β-D-galactopyranosyl(1→2)]-[α-L-arabinofuranosyl(1→3)]-β-D-glucuronopyranosidebutyl ester}-21-O-acetyl-22-O-angeloyl-3β,16α, 21β,22α, 28-pentahydroxyolean-12-ene], for which the “% inhibition of Fibronectin secretion” value with Fibronectin [3] (setting [8]) is recorded as 39%.

On to `C/C=C(/C)C(=O)O[C@H]1[C@H](OC(=O)C(C)C)[C@@]2(CO)C(CC1(C)C)C1=CCC3[C@@]4(C)CC[C@H](O[C@@H]5OC(C(=O)O)[C@@H](O)C(O[C@@H]6O[C@@H](CO)C(O)C6O)C5O[C@@H]5OC(CO)[C@H](O)C(O)C5O)C(C)(C)C4CC[C@@]3(C)[C@]1(C)[C@@H](O)[C@H]2O` (stereo partly drawn) [Y0, 3-O-[β-D-galactopyranosyl(1→2)]-α-L-arabinofuranosyl(1→3)-β-D-glucuronopyranosyl-21-O-angeloyl, 22-O-(2-methylpropanoyl)-3β, 15α, 16α, 21β, 22α, 28-hexahydroxyolean-12-ene], for which the “% inhibition of Fibronectin secretion” value in the series with Fibronectin [3] (setting [8]) is 34%. The “IC50, cytotoxic to Leishmania Major” value in series [7] (MTT assay, promastigotes) amounted to 25 µg/mL (≈ 22.1 µM).

Take `CC=C(C)C(=O)OC1C(OC(=O)C(C)=CC)C23C(O)CC4(C)C5(C)CCC6C(C)(C)C(OC7OC(C(=O)O)C(O)C(OC8OC(CO)C(O)C(O)C8OC8OC(C)C(O)C(O)C8OC8OC(C)C(O)C(O)C8O)C7OC7OC(CO)C(O)C(O)C7O)CCC6(C)C5CCC4(OC2O)C3CC1(C)C` (stereo not shown) [Mb5]: the “% inhibition of Fibronectin secretion” value is 25% with Fibronectin [1]; 35% in the series on Fibronectin [2]; 35% with Fibronectin [3] (setting [8]); 15% in the series with Fibronectin [4]; 28% in the series on Fibronectin [5]; 33% in the series with Fibronectin [6]. Also, the “IC50, cytotoxic to Leishmania Major” value in series [7] (MTT assay, promastigotes) stood at 15 µg/mL (≈ 10.2 µM).

For `C/C=C(/C)C(=O)O[C@H]1[C@H](O)[C@@]2(COC(=O)C(C)CC)C(CC1(C)C)C1=CCC3[C@@]4(C)CC[C@H](O[C@@H]5OC(C(=O)O)[C@@H](O)C(O[C@@H]6O[C@@H](CO)C(O)C6O)C5O[C@@H]5OC(CO)[C@H](O)C(O)C5O)C(C)(C)C4CC[C@@]3(C)[C@]1(C)[C@@H](O)[C@H]2O` (stereo partly drawn) [Y7, 3-O-[β-D-galactopyranosyl-(1→2)]-α-L-arabinofuranosyl-(1→3)-β-D-glucuronopyranosyl-21-O-angeloyl-28-O-2-methylbutanoyl-3β, 15α, 16α, 21β, 22α, 28-hexahydroxyolean-12-ene], in the series with Fibronectin [3] (setting [8]), the “% inhibition of Fibronectin secretion” value is on record as 34%. For the same molecule, the “IC50, cytotoxic to Leishmania Major” value in series [7] (MTT assay, promastigotes) was determined as 18 µg/mL (≈ 15.7 µM).

As for `C/C=C(/C)C(=O)O[C@H]1[C@H](OC(=O)/C(C)=C\C)[C@@]2(CO)C(CC1(C)C)C1=CCC3[C@@]4(C)CC[C@H](O[C@@H]5OC(C(=O)O)[C@@H](O)C(O)C5O[C@@H]5OC(CO)[C@H](O)C(O)C5O)C(C)(C)C4CC[C@@]3(C)[C@]1(C)[C@@H](O)[C@H]2O` (stereo partly shown) [Y5], the “IC50, cytotoxic to Leishmania Major” value in series [7] (MTT assay, promastigotes) amounted to 16 µg/mL (≈ 15.9 µM).

As to `C/C=C(/C)C(=O)O[C@H]1[C@H](OC(=O)/C(C)=C/C)[C@@]2(CO)C(CC1(C)C)C1=CCC3[C@@]4(C)CC[C@H](O[C@@H]5OC(C(=O)O)[C@@H](O)C(O[C@@H]6OC[C@@H](O)C(O)C6O)C5O[C@@H]5OC(CO)[C@H](O)C(O)C5O)C(C)(C)C4CC[C@@]3(C)[C@]1(C)C[C@H]2O` (stereo partly drawn) [Z12, 3-O-[β-D-galactopyranosyl(1→2)]-β-D-xylopyranosyl(1→3)-β-D-glucuronopyranosyl-21-O-angeloyl, 22-O-tigloyl-3β, 16α, 21β, 22α, 28-pentahydroxyolean-12-ene], the “IC50, cytotoxic to Leishmania Major” value in series [7] (MTT assay, promastigotes) amounted to 23 µg/mL (≈ 20.4 µM).

Turning to `C/C=C(/C)C(=O)O[C@H]1[C@H](OC(=O)/C(C)=C\C)[C@@]23C(CC1(C)C)[C@]1(CCC4[C@@]5(C)CC[C@H](O)C(C)(C)C5CC[C@@]4(C)[C@]1(C)C[C@H]2O)O[C@@H]3O` (stereo partly shown) [ACH-Mb5], the half-inhibitory concentration (IC50) in series [7] (MTT assay, promastigotes) amounted to 18 µg/mL (≈ 26.8 µM).
